Where a SMILES comes first, the peptide text is derived from it.
Assays:
[1] = Clinical study of 0.1% N-Acetyl-RGDS in patients with POAG and OH (IOP, tonography); assay type: in vivo, human; settings: 0.1% topically twice daily
Excerpt: Without intending to be bound by theory, the inventor currently believes that RGD-containing peptides, and/or their pharmacologically acceptable salts, are efficacious for the therapeutical and surgical treatment of primary open-angle glaucoma (POAG) and ocular hypertension (OH). […] The effect of 0.1% N-Acetyl-RGDS on outflow facility, as studied by tonography, was striking providing a significant increase to 26-33%. The cleansing activity of Acetyl-RGDS is accompanied by increase in trabecular outflow facility which is different from that of other drugs (pilocarpine) previously shown in patients with POAG and OH. The clinical significance and mechanism of IOP reduction by N-Acetyl-RGDS are related with the cleansing effect of N-Acetyl-RGDS on extracellular matrix proteins and plaque material in trabecular meshwork to reduce the outflow resistance in the eyes of patients with POAG and OH. It is believed N-Acetyl-RGDS is also suitable to treat secondary cataracts and vitreoproliferative disorders.

[2] = Pharmacokinetic studies: N-acetylcarnosine in blood plasma after topical administration to the eye; assay type: in vivo
Method: (§1) Yet another advantage of the present invention is that systemic absorption of N-acetylcarnosine and/or carnosine is increased through the microvessels of the conjunctival and lid mucosal tissues because the cellulose compound increases the time of persistence of N-acetylcarnosine in the conjunctival sac. More particularly, N-acetylcarnosine appears in blood plasma within 30 min of its topical administration to the eye with carboxymethylcellulose. The half time of decay of N-acetylcarnosine in plasma is about 150 min or more according to pharmacokinetic studies. […] Accordingly, once in blood plasma N-acetylcarnosine can act as a competititve saturating inhibitor of carnosinase, which is very helpful to protect L-carnosine from hydrolysis during concomitant oral administration of L-carnosine as an anti-aging therapy.

carnosinase = target: T1, carnosinase (Homo sapiens, UniProt Q96KN2); assay: Hydrolysis with carnosinase; assay type: biochemical; settings: substrate of carnosinase similar to L-carnosine
T1 sequence (Q96KN2 27-507 limits assumed): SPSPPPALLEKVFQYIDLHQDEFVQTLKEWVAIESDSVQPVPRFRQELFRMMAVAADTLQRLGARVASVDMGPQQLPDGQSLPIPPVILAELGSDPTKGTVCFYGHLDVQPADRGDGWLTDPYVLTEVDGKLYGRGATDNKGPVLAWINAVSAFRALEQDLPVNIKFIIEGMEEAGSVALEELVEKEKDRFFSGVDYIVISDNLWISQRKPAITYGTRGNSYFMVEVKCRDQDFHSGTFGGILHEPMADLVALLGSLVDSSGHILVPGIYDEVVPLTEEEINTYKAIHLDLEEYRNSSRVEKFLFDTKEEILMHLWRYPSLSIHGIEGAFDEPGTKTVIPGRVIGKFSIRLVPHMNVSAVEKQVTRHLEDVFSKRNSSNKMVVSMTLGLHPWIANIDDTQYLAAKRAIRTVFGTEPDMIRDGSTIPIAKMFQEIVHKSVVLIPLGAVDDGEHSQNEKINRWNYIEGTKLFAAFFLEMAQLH
Method: as §1

Row | Structure (SMILES) | tolerability [1] | half time of decay in plasma ([2]; according to pharmacokinetic studies) | time to appearance in blood plasma ([2]; topical administration to the eye with carboxymethylcellulose) | resistance to hydrolysis with carnosinase (carnosinase)
1 | CC(=O)N[C@@H](CCCNC(=N)N)C(=O)NCC(=O)N[C@@H](CC(=O)O)C(=O)N[C@@H](CO)C(=O)O [N-Acetyl-RGDS, N-acetyl-Arg-Gly-Asp-Ser peptide] (Ac-RGDS-OH) | well tolerated | – | – | –
2 | CC(=O)NCCC(=O)N[C@@H](Cc1c[nH]cn1)C(=O)O [N-acetylcarnosine] | – | ≥ 150 min | ≤ 30 min | highly resistant to hydrolysis with carnosinase
